Assay results reported in PubChem BioAssay (NCI).
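Compound exposure: 48 hours, 5 concentrations, 96-well plates. At the TGI there is no net growth.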

How the values were obtained:
Experiment in all cases: NCI-60 cell line screen, 48 h
[1] = system: 786-0 renal
[2] = system: A549 NSCLC
[3] = system: ACHN renal
[4] = system: BT-549 breast
[5] = system: CAKI-1 renal
[6] = system: CCRF-CEM leukemia
[7] = system: COLO 205 colon
[8] = system: DU-145 prostate
[9] = system: EKVX NSCLC
[10] = system: HCC-2998 colon
[11] = system: HCT-116 colon
[12] = system: HCT-15 colon
[13] = system: HL-60(TB) leukemia
[14] = system: HOP-62 NSCLC
[15] = system: HOP-92 NSCLC
[16] = system: HS 578T breast
[17] = system: HT29 colon
[18] = system: IGROV1 ovarian
[19] = system: K-562 leukemia
[20] = system: KM12 colon
[21] = system: LOX IMVI melanoma
[22] = system: M14 melanoma
[23] = system: MALME-3M melanoma
[24] = system: MCF7 breast
[25] = system: MDA-MB-231 breast
[26] = system: MDA-MB-435
[27] = system: MDA-N
[28] = system: MOLT-4 leukemia
[29] = system: NCI-H226 lung
[30] = system: NCI-H23 lung
[31] = system: NCI-H460 lung
[32] = system: NCI-H522 lung
[33] = system: NCI/ADR-RES ovarian
[34] = system: OVCAR-3 ovarian
[35] = system: OVCAR-4 ovarian
[36] = system: OVCAR-5 ovarian
[37] = system: OVCAR-8 ovarian
[38] = system: PC-3 prostate
[39] = system: RPMI-8226 leukemia
[40] = system: RXF 393 renal
[41] = system: SF-268 CNS
[42] = system: SF-295 CNS
[43] = system: SF-539 CNS
[44] = system: SK-MEL-2 melanoma
[45] = system: SK-MEL-28 melanoma
[46] = system: SK-MEL-5 melanoma
[47] = system: SK-OV-3 ovarian
[48] = system: SN12C renal
[49] = system: SNB-19 CNS
[50] = system: SR leukemia
[51] = system: SW-620 colon
[52] = system: TK-10 renal
[53] = system: U251 CNS
[54] = system: UACC-257 melanoma
[55] = system: UACC-62 melanoma
[56] = system: UO-31 renal

CC(CCOc1c2ccoc2cc2oc(=O)ccc12)C1=CC(=O)C(C)(C)O1 (stereo unspecified)
TGI [1]: > 100 µM
TGI [2]: > 100 µM
TGI [3]: > 100 µM
TGI [4]: > 100 µM
TGI [5]: > 100 µM
TGI [6]: > 100 µM
TGI [7]: > 100 µM
TGI [8]: > 100 µM
TGI [9]: > 100 µM
TGI [10]: > 100 µM
TGI [11]: > 100 µM
TGI [12]: > 100 µM
TGI [13]: > 100 µM
TGI [14]: > 100 µM
TGI [15]: > 100 µM
TGI [16]: > 100 µM
TGI [17]: > 100 µM
TGI [18]: > 100 µM
TGI [19]: > 100 µM
TGI [20]: > 100 µM
TGI [21]: > 100 µM
TGI [22]: > 100 µM
TGI [23]: > 100 µM
TGI [24]: > 100 µM
TGI [25]: > 100 µM
TGI [26]: > 100 µM
TGI [27]: > 100 µM
TGI [28]: > 100 µM
TGI [29]: > 100 µM
TGI [30]: > 100 µM
TGI [31]: > 100 µM
TGI [32]: 71.3 µM
TGI [33]: > 100 µM
TGI [34]: > 100 µM
TGI [35]: > 100 µM
TGI [36]: > 100 µM
TGI [37]: > 100 µM
TGI [38]: > 100 µM
TGI [39]: > 100 µM
TGI [40]: > 100 µM
TGI [41]: > 100 µM
TGI [42]: > 100 µM
TGI [43]: > 100 µM
TGI [44]: > 100 µM
TGI [45]: > 100 µM
TGI [46]: > 100 µM
TGI [47]: > 100 µM
TGI [48]: > 100 µM
TGI [49]: > 100 µM
TGI [50]: > 100 µM
TGI [51]: > 100 µM
TGI [52]: > 100 µM
TGI [53]: > 100 µM
TGI [54]: > 100 µM
TGI [55]: > 100 µM
TGI [56]: > 100 µM
